The test system of one experiment is KG-1a. Kind of experiment: WST-1 proliferation assay, KG-1a. Particulars: Homo sapiens, KG-1a; WST-1, 48 hours of treatment. The class given is cell-based. The procedure:
(§1) Albert Pinhasov (Ariel University, Ariel, Israel). […] Granta cells were kindly provided by Prof.
(§2) Table 3 [resents the calculated IC50 values (μM) for each chimera in different hematological malignancies cell-lines. The proliferation rate was measured by WST-1 assay after 48 hours of treatment. The result shown for each concentration point represents the […]
Background: Tetrazolium dyes change colour on reduction, which living cells bring about.

Experiment [1] concerns OCI-AML3, KG-1a, Granta, Jeko-1, BV-173 and MDA MB-231 cell-lines. Kind of experiment: Low-dose proliferation test on aggressive cell-lines. The class given is cell-based. Particulars: 50 nM-250 nM. On the procedure:
The cytotoxicity of the synthesized chimeras on MDA MB-328 was determined by measuring the mitochondrial enzyme activity, using a commercial XTT assay kit (Biological Industries, Bet-Ha'emek, Israel). All samples contained DMSO (Sigma Aldrich) at final concentration […], XTT reagent was added, and the cells were re-incubated for additional 3 h. During that time, the absorbencies in the wells were measured with a TECAN Infinite M200 ELISA reader at both 480 and 680 nm. The difference between these measurements was used for calculating the % Growth Inhibition (GI) in test wells compared to two controls: cells that were exposed to the medium and solvent, and those which were exposed to a solvent-free medium. All the tests were done in tetra-plicate; each experiment was conducted three times.
Therefore, it was decided to reduce chimera 9 and the parental drug (doxorubicin) doses to 50-250 nM range on the most four aggressive hematological malignancies cell-lines (OCI-AML3, KG-1a, Granta and Jeko-1). Moreover, chimera 9 was examined on an additional aggressive leukemia cell line (BV-173) and breast cancer cell-line model (MDA MB-231).

In a further experiment the test system is MHH-CALL4. Kind of experiment: WST-1 proliferation assay, MHH-CALL4. Format: cell-based, human. Particulars: Homo sapiens, MHHCALL4; WST-1, 48 hours of treatment. On the procedure: as §1, §2
In another experiment the test system is DND41. Kind of experiment: WST-1 proliferation assay, DND41. The class given is cell-based, human. Particulars: Homo sapiens, DND41; WST-1, 48 hours of treatment. The procedure: as §1, §2
The next experiment deals with OCI-AML3. In words: WST-1 proliferation assay, OCI-AML3. Particulars: Homo sapiens, OCI-AML-3; WST-1, 48 hours of treatment. The class given is cell-based. On the procedure: as §1, §2

SMILES strings stand for the structures.

For orientation: IC50 means the concentration that inhibits the measured activity by half. Read a low IC50 as greater potency. Regarding `COC(=O)N(C)/N=N/c1ccc(CNC2CC(OC3CC(O)(C(=O)CO)Cc4c(O)c5c(c(O)c43)C(=O)c3c(OC)cccc3C5=O)OC(C)C2O)cc1` (centres unmarked) [Chimera 9, (E)-methyl-3-(4-(((3-hydroxy-2-methyl-6-((3,5,12-trihydroxy-3-(2-hydroxyacetyl)-10-methoxy-6,11-dioxo-1,2,3,4,6,11-hexahydrotetracen-1-yl)oxy)tetrahydro-2H-pyran-4-yl)amino)methyl)phenyl)-1-methyltriaz-2-ene-1-carboxylate], the half-maximal inhibitory concentration (IC50) with KG-1a was found to be 0.4 µM; with MHH-CALL4, 1.14 µM; in the experiment on DND41, 0.64 µM; in the experiment with OCI-AML3 it was 1.24 µM. The “proliferation rate versus corresponding controls” value in experiment [1] is on record as “significant reduction in the proliferation rate”.

The values above are taken from US20260151413A1, “ANTICANCER DRUG CONJUGATES” (Ariel Scientific Innovations Ltd., priority 2022, published 2026).
